Experimental data from US9126941B2, “Treatment of hyperproliferative disorders with diarylhydantoin compounds” (The Regents of the University of California, priority 2005, dated 2015).
pIC50: −log10 of the molar value. Where two headings read alike, the source gives them in different places.

Legend:
AR [1] = biological target: T1, AR (Homo sapiens, UniProt P10275); experiment: cell-based; assay type: cell-based
Protocol: It is well established that PSA levels are indicators of AR activities in prostate cancer. […] The LNCaP-AR cells are a line of lymph node carcinoma of prostate cells transduced with a plasmid that makes express androgen receptors. […] After four days incubation, secreted PSA levels were assayed using PSA ELISA kits (American Qualex, San Clemente, Calif.)

1AR cell line = experiment: Luciferase activity in the 1AR cell line; assay type: cell-based; details: for a given dose
4AR cell line = experiment: Luciferase activity in the 4AR cell line; assay type: cell-based; details: for a given dose, 1.25 to 10 μmol
AR [2] = biological target: T1, AR; experiment: cell-based; assay type: cell-based; remark: listed apart in the source
Protocol: The compounds were subjected to tests using an artificial AR response reporter system in a hormone refractory prostate cancer cell line. […] After two days of incubation, reporter activities were assayed.

AR [3] = biological target: T1, AR; experiment: cell-based
From the text: Table 2 lists the agonistic activities of different compounds.

AR [4] = biological target: T1, AR; experiment: cell-based; assay type: cell-based; remark: listed apart in the source
[5] = biological target: glucocorticoid receptor (GR) (Homo sapiens (Human), UniProt P04150); experiment: GR response reporter in LNCaP cells over expressing glucocorticoid receptor; assay type: cell-based; details: reporter induced by dexamethasone
DU-145 cells = experiment: MTS growth assay, DU-145 cells; assay type: cell-based; details: prostate cancer cell line lacking AR expression
MCF7 = experiment: Growth effect on MCF7 cells; assay type: cell-based; details: breast cancer cells
SkBr3 = experiment: Growth effect on SkBr3 cells; assay type: cell-based; details: breast cancer cells
3T3 = experiment: Growth effect on 3T3 fibroblasts; assay type: cell-based; details: normal mouse fibroblast cell line
LNCaP cells = experiment: MTS growth assay, hormone sensitive LNCaP cells; assay type: cell-based; details: FIG. 10, MTS
Protocol: FIG. 10. Inhibitory effect on growth of hormone sensitive prostate cancer cells. […] After 4 days of incubation, cell growth was measured by MTS assay.

[6] = system: AR-overexpressed LNCaP xenograft tumors; experiment: AR-overexpressed LNCaP xenograft model in castrated male SCID mice, oral once daily; assay type: in vivo; details: 44 days
Protocol: FIG. 7. […] Mice with established LN-AR xenograft tumors were randomized and treated with indicated compounds orally once daily. Tumor size was measured by caliber.
FIG. 8. […] The tumors were taken out from the mice after 44 days of treatment, tumor lysate was extracted, and PSA level in tissue lysate was determined by ELISA.
First we examined this compound on xenograft tumors established from AR-overexpressed LNCaP cells. The engineered cells in Matrigel (Collaborative Biomedical) were injected subcutaneously into the flanks of the castrated male SCID mice. Tumor size was measured weekly in three dimensions using calipers. After xenograft tumors established (tumor size reached at least 40 mm^3), mice with tumors were randomized and treated with different doses of compounds orally once daily.

[7] = system: hormone refractory LAPC4 xenograft; experiment: Hormone refractory LAPC4 xenograft model; assay type: in vivo, mice; details: 1 mg per kg orally once daily, 17 days
Protocol: FIG. 9. […] (A), tumor size was measured by caliber. (B), the tumors were taken out from the mice after 17 days of treatment, tumor lysate was extracted, and PSA level in tissue lysate was determined by ELISA.
This model was established from passaging of hormone sensitive prostate cancer in castrated mice, which mimics the clinical progression of prostate cancer (2).

[8] = Pharmacokinetics in FVB mice, drug concentration by HPLC; details: mice
Protocol: Mice were divided into groups of three for each time points. Two mice were not treated with drug and two other mice were treated with vehicle solution. […]
The drug was dissolved in a mixture 1:5:14 of DMSO:PEG400:H20. (Vehicle solution) and was administered into mice through the tail vein. The animals are warmed under a heat lamp for approximately 20 minutes prior to treatment to dilate their tail vein. […] After drug administration, the animals were euthanized via CO2 inhalation at different timepoints: […], […], 2 h, 6 h, 16 h. Animals were immediately bleed after exposure to CO2 via cardiac puncture (1 ml BD syringe+27 G ⅝ needle).
The samples for HPLC analysis were prepared according to the following procedure: • Blood cells were separated from serum by centrifugation. • To 400 μl of serum were added 80 μl of a 10 μM solution of an internal standard and 520 μl of acetonitrile. Precipitation occurred. • The mixture was vortexed for 3 minutes and then placed under ultrasound for 30 minutes. • The solid particles were filtered off or were separated by centrifugation. • The filtrate was dried under an argon flow to dryness.

T1 sequence (P10275 whole entry, looked up): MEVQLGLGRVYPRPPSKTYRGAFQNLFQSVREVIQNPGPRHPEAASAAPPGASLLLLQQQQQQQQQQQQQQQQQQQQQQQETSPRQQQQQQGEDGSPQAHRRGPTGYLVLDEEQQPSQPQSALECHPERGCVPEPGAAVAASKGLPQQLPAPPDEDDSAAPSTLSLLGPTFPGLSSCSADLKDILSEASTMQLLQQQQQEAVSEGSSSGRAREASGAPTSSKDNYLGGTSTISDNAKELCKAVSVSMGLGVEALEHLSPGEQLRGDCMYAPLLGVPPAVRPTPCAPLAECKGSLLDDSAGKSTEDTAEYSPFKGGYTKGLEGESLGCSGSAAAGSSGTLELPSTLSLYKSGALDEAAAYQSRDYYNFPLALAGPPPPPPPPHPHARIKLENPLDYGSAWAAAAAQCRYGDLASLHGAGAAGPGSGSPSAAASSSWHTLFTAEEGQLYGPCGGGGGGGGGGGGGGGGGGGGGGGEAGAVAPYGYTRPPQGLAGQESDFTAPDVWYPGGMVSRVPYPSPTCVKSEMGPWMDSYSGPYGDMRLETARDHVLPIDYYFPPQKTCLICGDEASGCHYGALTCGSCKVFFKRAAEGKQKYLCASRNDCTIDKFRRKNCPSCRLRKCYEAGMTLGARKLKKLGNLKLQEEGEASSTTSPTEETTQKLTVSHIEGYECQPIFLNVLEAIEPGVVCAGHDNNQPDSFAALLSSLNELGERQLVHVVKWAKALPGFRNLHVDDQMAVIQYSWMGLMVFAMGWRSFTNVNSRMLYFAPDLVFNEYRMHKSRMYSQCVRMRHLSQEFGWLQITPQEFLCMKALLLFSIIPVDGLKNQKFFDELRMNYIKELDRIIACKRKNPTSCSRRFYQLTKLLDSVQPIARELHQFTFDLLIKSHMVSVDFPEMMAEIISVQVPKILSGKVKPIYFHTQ
Chain of glucocorticoid receptor (GR) (P04150 whole entry, species assumed): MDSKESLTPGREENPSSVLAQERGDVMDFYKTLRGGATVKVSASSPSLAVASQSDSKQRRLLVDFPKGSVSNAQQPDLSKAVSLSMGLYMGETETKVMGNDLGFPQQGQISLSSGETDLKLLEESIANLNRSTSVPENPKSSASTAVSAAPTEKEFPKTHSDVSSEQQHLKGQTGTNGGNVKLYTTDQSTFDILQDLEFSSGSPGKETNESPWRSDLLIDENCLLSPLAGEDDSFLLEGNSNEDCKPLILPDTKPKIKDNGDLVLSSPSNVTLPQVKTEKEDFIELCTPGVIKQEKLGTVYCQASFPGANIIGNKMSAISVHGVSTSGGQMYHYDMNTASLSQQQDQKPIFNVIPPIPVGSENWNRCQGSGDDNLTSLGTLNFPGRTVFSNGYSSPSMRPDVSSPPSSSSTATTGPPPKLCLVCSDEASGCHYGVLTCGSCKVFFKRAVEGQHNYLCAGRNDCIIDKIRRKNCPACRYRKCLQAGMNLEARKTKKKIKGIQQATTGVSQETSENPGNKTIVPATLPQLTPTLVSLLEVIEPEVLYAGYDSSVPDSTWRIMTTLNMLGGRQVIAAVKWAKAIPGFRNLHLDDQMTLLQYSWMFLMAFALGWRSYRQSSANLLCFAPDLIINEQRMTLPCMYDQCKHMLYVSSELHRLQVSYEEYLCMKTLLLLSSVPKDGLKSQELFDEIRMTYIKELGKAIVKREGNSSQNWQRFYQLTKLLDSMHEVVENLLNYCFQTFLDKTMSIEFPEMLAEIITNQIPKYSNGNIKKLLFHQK

## CC1(C)C(=O)N(c2ccc(C#N)c(C(F)(F)F)c2)C(=S)N1c1ccc(O)cc1 [RD8, 4-[3-(4-hydroxyphenyl)-4,4-dimethyl-5-oxo-2-thioxoimidazolidin-1-yl]-2-trifluoromethylbenzonitrile]
AR [1]; for a given dose / concentration
  PSA level, LN/AR cell line, comparison: less than the PSA level upon exposure to RD9
1AR cell line
  Luciferase activity, 1AR cell line: less than the luciferase activity upon exposure to RD9
4AR cell line
  Luciferase activity, 4AR cell line (FIG. 26): less than the luciferase activity upon exposure to RD9

## Cc1ccc(N2C(=S)N(c3ccc(C#N)c(C(F)(F)F)c3)C(=O)C23CCC3)cc1 [RD37, 4-(8-oxo-6-thioxo-5-(4-methylphenyl)-5,7-diazaspiro[3.4]oct-7-yl)-2-trifluoromethylbenzonitrile]
AR [2]
  pIC50: 6.91
AR [2]; assay not specified
  IC50 compared with bicalutamide (FIG. 15): much lower than the IC50 for bicalutamide
AR [1]
  pIC50: 6.89
AR [1]; 500 nM
  Rank order, most active to least active, relative PSA level (FIG. 4): RD138>RD131>RD37>RD133>RD134>RD137>RD138>RD135>bicalutamide
AR [1]; at concentrations of 1000 nM
  Decrease in PSA level of LNCaP-AR cells, comparison (FIG. 4): greater decrease in PSA level of LNCaP-AR cells than RD133, RD134, and RD138
AR [3]; LN-AR, absence of R1881
  Agonistic activity on AR, reporter: no agonistic activity
AR [3]; read-out: Fold induction of AR response reporter, 0.1 μM
  fold induction at 0.1 µM: 0.87
AR [3]; read-out: Fold induction of AR response reporter, 1 μM
  fold induction at 1 µM: 1.19
AR [3]; read-out: Fold induction of AR response reporter, 10 μM
  fold induction at 10 µM: 0.89
AR [4]; AR over expressed LNCaP, absence of R1881
  Agonistic activity, secreted PSA: no agonistic activities
AR [4]; LNCaP, read-out: Fold induction of endogenous PSA, 0.1 μM
  fold induction at 0.1 µM: 1.25
AR [4]; LNCaP, read-out: Fold induction of endogenous PSA, 1 μM
  fold induction at 1 µM: 1.2
AR [4]; LNCaP, read-out: Fold induction of endogenous PSA, 10 μM
  fold induction at 10 µM: 1.15
[5]
  Effect on GR response reporter: no effect on GR
DU-145 cells
  Growth inhibitory effect on DU-145 cells: no growth inhibitory effect
MCF7
  Growth effect on MCF7: no growth effect
SkBr3
  Growth effect on SkBr3: no growth effect
3T3
  Growth effect on 3T3: no growth effect
LNCaP cells
  Potency relative to bicalutamide on hormone sensitive prostate cancer cells: 10 fold
[6]; 1 mg per kg orally once daily
  Growth of LNCaP-AR xenograft tumors (FIG. 7a): strongly inhibited growth
[6]; 0.1, 1 or 10 mg per kg
  Dose dependence of tumor growth inhibition (FIG. 7b): dose-dependent
[6]; 0.1, 1 or 10 mg per kg, tumor lysate ELISA
  PSA expression in xenograft tumors (FIG. 8): inhibited PSA expression
[7]
  Growth of hormone refractory LAPC4 xenograft (FIG. 9a): strongly inhibited
  PSA expression in hormone refractory LAPC4 xenograft (FIG. 9b): strongly inhibited
[8]
  Pharmacokinetic behavior, residence time in blood: metabolize fast
